“And” between values parts separate entries of the source, which are not always exact repeats. Equal values may be shown once. “Also recorded” adds a separate entry of the source. Read-outs that look alike come from different tables or passages of the source.
Legend:
[1] = tested on: gap junction; conditions: cited from earlier work
[2] = in vivo, cited from earlier work
[3] = tested on: polyglutamine-expanded Huntingtin protein; conditions: cited from earlier work; for polyglutamine protein aggregation: Huntington's disease (HD) model
[4] = tested on: aSYN expressing larvae; experiment: Larval survival assay in liquid culture; format: in vivo, Drosophila; conditions: for survival: after 4 days in liquid culture, DMSO 14%, untreated 13%
Method: (§1) Embryos are collected from transgenic strains and dispensed in 96-well plates containing liquid media culture (200 uL/well). Stock compounds (15, 15×10^−2, 15×10^−5 mM) prepared in DMSO, are diluted 1/10 with media, and then 1 uL of this working reagent is dispensed in culture wells. Percentage survival of mutant and negative control larvae are recorded on day 4 following compound administration. Data are plotted graphically.
as §1, with “Embryos were” for “Embryos are”, “DMSO, were” for “DMSO, are”, “reagent was” for “reagent is”, “Data were” for “Data are”, “plotted graphically with Prism software.” for “plotted graphically.”

[5] = tested on: primary neurons expressing human mutant aSYN A30P; experiment: Primary neuronal culture, neurite morphology (Cellomics ArrayScan); format: cell-based, Drosophila; conditions: for neurite length and branching in images vs DMSO controls: 60 nM, FIG. 1B, 1C
Method: Primary cell cultures are prepared from mid-gastrula stage embryos as described previously (Sepp et al., 2008). Briefly, embryos are collected on agar media plates and dechorionated in 50% bleach for 4 min., followed by rinsing with sterile distilled water. Embryos are homogenized in Shields and Sang M3 media (Sigma) in a Dounce homogenizer, and debris are pelleted by centrifugation at 40 g for 10 min and then 5 min. Neuroblasts are pelleted by centrifugation at 380G for 10 min. Cells are resuspended at 1×10^6 cells/mL in Shields and Sang M3 media supplemented with 10 U/mL penicillin, 10 ug/mL streptomycin, and 200 ng/mL insulin, and plated on 384-well plates (Corning) at 50 uL/well. Cells are incubated at 21° C. Compound is applied 24 hrs after cells are plated. Stock compounds (15 mM) and log dilutions (10^−1, 10^−2, 10^−3, 10^−4, and 10^−5) are prepared in DMSO, then each stock is further diluted 1/10 with media, and 1 uL of this working reagent is applied to culture wells. Cultures are matured for 7 days. Cultures are fixed and stained as described previously (Halter et al., 1995), using pan-neuronal marker anti-elav (1:10, Developmental Studies Hybridoma Bank), and anti-human aSYN (1:1000, Abeam), and dopaminergic neuron marker anti-tyrosine hydroxylase (1:1000, Millipore). Cultures are imaged on a Cellomics robotic fluorescence microscope, and morphologies are quantified with Cellomics ArrayScan algorithms and statistically processed with Prism software.
Primary cell cultures were prepared from mid-gastrula stage embryos as described previously (Sepp et al., 2008). Briefly, embryos are collected on agar media plates and dechorionated in 50% bleach for 4 min., followed by rinsing with sterile distilled water. Embryos were homogenized in Shields and Sang M3 media (Sigma) in a Dounce homogenizer, and debris pelleted by centrifugation at 40 g for 10 min and then 5 min. Neuroblasts were pelleted by centrifugation at 380G for 10 min. Cells were resuspended at 1×10^6 cells/mL in Shields and Sang M3 media supplemented with 10 U/mL penicillin, 10 ug/mL streptomycin, and 200 ng/mL insulin, and plated on 384-well plates (Corning) at 50 uL/well. Cells were incubated at 21° C. Compound was applied 24 hrs after cells were plated. Stock compounds (15 mM) and log dilutions (10^−1, 10^−2, 10^−3, 10^−4, and 10^−5) were prepared in DMSO, then each stock was further diluted 1/10 with media, and 1 uL of this working reagent was applied to culture wells. Cultures were matured for 7 days. Cultures were fixed and stained as described previously (Halter et al., 1995), using pan-neuronal marker anti-GFP (1:1000, Life Technologies), and anti-human aSYN (1:1000, Abcam). Cultures were imaged on a Cellomics robotic fluorescence microscope, and morphologies are quantified with Cellomics ArrayScan algorithms and statistically processed with Prism software.

[6] = target: HSD1 (Mus musculus, UniProt P50172); conditions: i.p. 20 mg/kg, every other day for 2 months; cited from earlier work
[7] = Pharmacokinetic analysis: mass-spec of TPT in postmortem rat brain; format: in vivo; conditions: osmotic pump into third ventricle, 37.4 ug/h
Text: On Day 1 of Week 3, rats were fitted with osmotic mini-pumps to administer TPT to the third ventricle. Intracerebral administration was chosen to maximize the amount of drug given to the brain and minimize side effects in peripheral tissues. Using standard stereotaxic procedures, a 22-gauge guide cannula (Plastics One, Roanoake, Va.) was placed into the third ventricle (AP, −1.3 mm, ML, +0.0 mm; DV −4.6 mm with respect to bregma) of isoflurane/oxygen anesthetized rats, and anchored with dental acrylic. Rats were bilaterally infused with TPT or vehicle using a mini-osmotic pulp (Alzet model 2ML2 pump, flow rate 5.0 uL/hr, Durect Corp. Cupertino) to the third ventricle, which was delivered for 2 weeks. The pumps were filled with 16.34 mM topotecan (TPT) (CPT06, Molcan Corporation) in 50 mM tartaric acid with 0.9% saline (delivered at 37.4 μg/h), or vehicle control alone. Upon cessation of drug on Day 7 of Week 4 or at some other time point, rats were sacrificed by an overdose of pentobarbital (1.0 mL of 240 mg/mL, i.p.) and exsanguinated by transcardial saline perfusion followed by 4% paraformaldehyde.
Postmortem brain samples were subjected to standard quadrupole mass […] analysis to determine brain penetration of TPT into tissue samples.

[8] = tested on: human mutant aSYN (AAV1/2 A53T α-Synuclein); experiment: Quantitative immunoblot of aSYN in AAV-aSYN rat model of Parkinson's disease; format: in vivo; conditions: 37.4 ug/h into third ventricle; for aSYN protein levels in postmortem rat brain immunoblots: TPT vs vehicle
Text: An AAV 1/2-aSYN A53T vector delivery-based over-expression of aSYN in the rat substantia nigra was chosen to model PD synucleinopathy, since it replicates progressive nigrostriatal degeneration and basal ganglia-based motor features of PD better than existing stable transgenic models. Furthermore, time of symptom onset is far more predictable, thus reducing experimental noise. Viral vectors will be delivered as using stereotactic injection. Briefly, 20 Sprague Dawley rats (280 g, Charles River) were injected with AAV 1/2-aSYN A53T to the experimental hemisphere (right) and AAV1/2-GFP to the control hemisphere (left) using standard stereotaxic procedures and isoflurane/oxygen anesthesia. Vector (2 μL) was delivered by microinjector (Stoelting, Kiel, Wis.) at 0.2 μL/min with coordinates from Bregma: AP, −5.2 mm; ML, −2.0 mm; DV, −7.5 mm. Viral stock concentrations for both AAV1/2 GFP and AAV1/2-aSYN A53T were 1.7×10^12 gp/mL. Animals were housed in pairs at 20° C. with a 12 hr light/dark cycle with food and water ad libitum. Animals recovered were maintained with regular care for 3 weeks as viral gene expression of aSYN built to emerging pathological levels as characterized previously.
On Day 1 of Week 3, rats were fitted with osmotic mini-pumps to administer TPT to the third ventricle. Intracerebral administration was chosen to maximize the amount of drug given to the brain and minimize side effects in peripheral tissues. Using standard stereotaxic procedures, a 22-gauge guide cannula (Plastics One, Roanoake, Va.) was placed into the third ventricle (AP, −1.3 mm, ML, +0.0 mm; DV −4.6 mm with respect to bregma) of isoflurane/oxygen anesthetized rats, and anchored with dental acrylic. […]
Standard Western blot techniques are used on dissected postmortem tissues to determine if aSYN levels decrease in response to TPT treatment. […] Blots are imaged on an Odyssey Quantitative Fluorescence Imaging System. Two-tailed student's t-test is used Western blot quantifications.

Sequence of HSD1 (P50172 whole entry): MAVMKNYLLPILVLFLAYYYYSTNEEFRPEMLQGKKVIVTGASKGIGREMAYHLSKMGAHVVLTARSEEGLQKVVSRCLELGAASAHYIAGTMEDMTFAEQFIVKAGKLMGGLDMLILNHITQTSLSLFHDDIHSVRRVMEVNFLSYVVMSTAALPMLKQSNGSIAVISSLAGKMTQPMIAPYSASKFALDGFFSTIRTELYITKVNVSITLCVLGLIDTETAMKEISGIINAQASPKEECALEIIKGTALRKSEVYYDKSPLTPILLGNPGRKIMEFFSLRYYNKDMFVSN

In the case of `CC1(C)[C@@H](O)CC[C@]2(C)[C@H]3C(=O)C=C4[C@@H]5C[C@@](C)(C(=O)O)CC[C@]5(C)CC[C@@]4(C)[C@]3(C)CC[C@@H]12` [18β-glycyrrhetinic acid], the “gap junction blocking activity” value [1] is given as “have gap junction blocking activity”, the “crossing of the blood-brain-barrier” value [2] is given as “do not cross the blood-brain-barrier at high enough concentrations” and the polyglutamine protein aggregation [3] is given as “protect against polyglutamine protein aggregation”.
With `CC[C@@]1(O)C(=O)OCc2c1cc1n(c2=O)Cc2cc3cc(O)ccc3nc2-1` [camptothecin-OH, 10-hydroxy-camptothecin] the survival ([4]; 'hi' dose 15 uM, n=5) was 100%, the “survival compared to DMSO vehicle-treated controls” value ([4]; high dose 15 uM) was “improved survival” and the “neurite morphology profiles (image features) vs DMSO negative control” value ([5]; 30 nM) was “improved neurite morphology profiles”. For the same compound, the “neurite outgrowth vs DMSO control” value ([5]; 30 nM, FIG. 1D) was “improved neurite outgrowth” and the “total neurite length per well” value ([5]; 30 nM, Mean±SEM, n=4, DMSO vehicle 15240±799.8 (n=18), P<0.05, FIG. 1D) was 20170±1430 um.
For `CC1(C)[C@@H](OC(=O)CCC(=O)O)CC[C@]2(C)[C@H]3C(=O)C=C4[C@@H]5C[C@@](C)(C(=O)O)CC[C@]5(C)CC[C@@]4(C)[C@]3(C)CC[C@@H]12` [carbenoxolone, (3β)-3-[(3-carboxy-propanoyl)oxy]-11-oxoolean-12-en-30-oic acid], the “gap junction blocking activity” value [1] is listed as “have gap junction blocking activity”, the “neurite morphology profiles (image features) vs DMSO negative control” value ([5]; 30 nM) is listed as “improved neurite morphology profiles” and the “excessive branching vs DMSO vehicle controls” value ([5]; 30 nM, FIG. 1E) is listed as “reduces the excessive branching phenotype; also recorded: reduced excessive branching”. The “total branches per well” value ([5]; 30 nM, Mean±SEM, n=4, DMSO vehicle 4.416±0.2622 (n=16), P<0.05, FIG. 1E) was 3.198±0.1825, the “neurite length and branching in images vs DMSO controls” value [5] was “longer neurites and reduced neuritic branching” and the “crossing of the blood-brain-barrier” value ([2]; concentrations needed for gap junction block) was “do not cross the blood-brain-barrier at high enough concentrations”. For the same compound, the “inhibition of target enzyme HSD1” value [6] was “effective at inhibiting the target enzyme HSD1”, the polyglutamine protein aggregation [3] was “protect against polyglutamine protein aggregation” and the “lifespan and motor control” value ([3]; early dosing) was “extend Drosophila HD model lifespan and improves motor control”. The “rescue of toxicity of polyglutamine-expanded Huntingtin protein” value ([3]; in vivo, Drosophila) was “in vivo rescue of toxicity”.
For `C[C@@H](CN1CC(=O)NC(=O)C1)N1CC(=O)NC(=O)C1` [dexrazoxane, Dexrazoxane], the survival ([4]; 'med' dose 0.15 uM, n=9) was 75% and the “survival compared to DMSO vehicle-treated controls” value ([4]; medium dose 0.15 uM) was “improved survival”.
With `CC[C@@]1(O)C(=O)OCc2c1cc1n(c2=O)Cc2cc3c(CN(C)C)c(O)ccc3nc2-1` [topotecan] the “average TPT brain level of three rats” value [7] was 2725 ng TPT/g tissue, the “TPT level in cortex, single rats” value ([7]; n=3 rats, listed as TPT) was 6809 ng TPT/g tissue and 967 ng TPT/g tissue and 399 ng TPT/g tissue and the “neurite outgrowth vs DMSO control” value ([5]; 30 nM, FIG. 1D) was “improved neurite outgrowth”. The “neurite length and branching in images vs DMSO controls” value [5] was “longer neurites and reduced neuritic branching”, the “aSYN protein levels in postmortem rat brain immunoblots” value [8] was “reduced aSYN protein levels; also recorded: inverse relationship” and the “aSYN protein levels in postmortem rat brain immunoblots” value ([8]; listed as TPT) was “reduced in the TPT treatment with a dose-dependent trend”. The “reduction in aSYN normalized to beta-Actin vs vehicle control” value ([8]; three rats, average 2725 ng TPT/g tissue) was ~2 fold.

— patent publication US20150148369A1, “CHEMICAL SUPPRESSORS OF NEUROTOXICITY IN SYNUCLEINOPATHIC DISEASES” (priority 2012, published 2015)
